In patent US20090247611A1, “METHOD OF TREATING A CANCER WITH A SURVIVIN ANTISENSE OLIGONUCLEOTIDE AND PACLITAXEL” (priority 2004, published 2009):

Tests used:
[1] = test system: HeLa cells; test: cell based caspase 3 assay; conditions: oligonucleotide 50 nM transfected 24 h, then 10 nM gemcitabine HCl or 1.25 nM paclitaxel for additional 48 h, compared to untreated control
Description: The assay is performed as described below.
HeLa cells are obtained from ATCC, Manassas, Va. and are cultured in DMEM with L-Glutamine medium (Gibco/Invitrogen) supplemented with 10% Fetal Bovine Serum (Hyclone), 0.1 mM Non-Essential Amino Acids, and 1 mM Sodium Pyruvate (Gibco/Invitrogen). For the caspase-3 assay, 96-well plates are plated with 1×10^4 cells/well. […] Caspases-3 activity is measured by reading proteolytically released fluor from the Ac-DEVD-AMC substrate using a plate-reading fluorometer with excitation at 360 nm and emission at 460 nm. After subtracting the plate background, the relative fluorescence units (RFU) are compared to untreated control and expressed as percentage increase in caspase-3 activity.
To investigate whether down-regulation of Survivin expression sensitizes HeLa cells to chemotherapy, combination treatment with Compound I and either gemcitabine HCl, doxorubicin HCl, or paclitaxel is evaluated. […] At the end of the incubation period, casapse-3 activity is measured. […] Data are expressed as percentage caspase-3 activity compared to untreated control.

[2] = test system: U-87 MG human glioblastoma; test: human xenograft tumor model, tumor growth delay; format: in vivo; conditions: U-87 MG s.c. xenograft; oligonucleotide 50 mg/kg loading then 25 mg/kg i.v. every other day; gemcitabine HCl 2.5 mg/kg i.p. every third day x4
Description: The use of human xenograft tumor models has been described previously and is well known in the art. The following tumor types can be used to conduct the assay as described below. U-87 MG human glioblastoma are obtained from […] et al., Neoplasia (2000) 2(3):242-50). For xenograft studies, just before implantation, animals are irradiated (450 TBI (total body irradiation)), and cells are mixed in matrigel (1:1). […] All subsequent intravenous doses (25 mg/kg) of Compound I or MM control oligonucleotide are administered every other day. The treatment with sub-optimal doses of gemcitabine HCl, doxorubicin HCl, or paclitaxel is initiated one day following the loading dose. Gemcitabine HCl is administered intraperitoneally at 2.5 mg/kg every third day for a total of four doses. Paclitaxel is administered intravenously at 1 mg/kg every fourth day for a total of four doses. Bi-dimensional measurements are performed twice per week, and tumor volumes are calculated based on the following formula: […] Tumor volume data are transformed to a log scale to equalize variance across time and treatment groups. The data are analyzed using a two-way analysis of variance by time and treatment using SAS PROC MIXED software (SAS Institute, Inc., Cary, N.C.). The preferred correlation model for the repeated measures is AR (Auto Regressive of order 1). Treatment groups are compared at each time point. The data are plotted as means and standard errors for each treatment group versus time. The presence of synergy in combination therapies is assessed on the tumor growth delay (TGD) scale. The time to reach a specified tumor size (1500 or 2000 or 2500 mg in this study) is determined for each animal. […] Maximum likelihood analysis assuming a Weibull distribution is used to calculate mean times and standard errors for each treatment group. Tumor growth delay is the difference in mean times between each of the treated groups and the control group.

For CC(=O)O[C@H]1C(=O)[C@@]2(C)[C@H]([C@H](OC(=O)c3ccccc3)[C@]3(O)C[C@H](OC(=O)[C@H](O)[C@@H](NC(=O)c4ccccc4)c4ccccc4)C(C)=C1C3(C)C)[C@]1(OC(C)=O)CO[C@@H]1C[C@@H]2O [Paclitaxel, 5β, 20-Epoxy-1,2α,4,7β,10β,13α-hexahydroxytax-11-en-9-one 4,10-diacetate 2-benzoate 13-ester with (2R,3 S)—N-benzoyl-3-phenylisoserine], the “Mean (% Caspase-3 Activity)” value [1] was 12.77%.

With Cl.Nc1ccn([C@@H]2O[C@H](CO)[C@@H](O)C2(F)F)c(=O)n1 (single isomer, unassigned) [Gemcitabine HCl, 2′-deoxy-2′,2′-difluorocytidine monohydrochloride (⊖-isomer)] the “Mean (% Caspase-3 Activity)” value [1] was 24.33%, the “Tumor Growth Delay at 1500 mg, Mean ± S.E.M.” value [2] was 0.3 ± 1.1 days and the “Tumor Growth Delay at 2000 mg, Mean ± S.E.M.” value [2] was 0.3 ± 1.2 days. The “Tumor Growth Delay at 2500 mg, Mean ± S.E.M.” value [2] was 0.6 ± 1 days.
